Values of other authors, collected in patent US20140051733A1, “FEBUXOSTAT PHARMACEUTICAL COMPOSITIONS” (Dr. Reddy's Laboratories Ltd., priority 2012, published 2014).
Where two headings read alike, the source gives them in different places.

How the values were obtained:
[1] = Class 2 = low solubility, high permeability

solubility (in acetonitrile): slightly soluble
solubility (in dimethylformamide): freely soluble
solubility (in dimethylsulfoxide): soluble
solubility (in ethanol): sparingly soluble
solubility (in methanol): slightly soluble
solubility (in water): practically insoluble
Biopharmaceutics Classification System class [1]: Class 2
Compound: Cc1nc(-c2ccc(OCC(C)C)c(C#N)c2)sc1C(=O)O [Febuxostat, 2-[3-cyano-4-(2-methylpropoxy)phenyl]-4-methylthiazole-5-carboxylic acid]
